Test systems include T47D; IGROV-1; SR; HCT-116; HOP-62; MCF7; CAKI-1; SW-620; ACHN; OVCAR-3; NCI-H522; U-251; CCRF-CEM; RPMI-8226; MDA-MB-231; HCC 2998; KM12; NCI-H460; SNB-19; A498.
Holding throughout (assay): NCI anticancer screen, dose series, 48 h

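1) Cells in 96-well plates. 2) Compound, 48 h, 5 concentrations. 3) Linear interpolation between surrounding doses. 4) Unreached endpoint = highest concentration. The concentration for 50% growth inhibition is given as GI50.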 Calls of active or inactive are those of the source. Cut-off read from the data, not from the text of the source: active = GI50 up to about 1.1 µM and inactive = higher. A value given as a limit tells only on which side of the number the result lay.

Consider `COc1ccc(Cc2cc(OC)c(OC)c(OC)c2)cc1O`, for which the GI50 in the assay with T47D is 53.8 µM (inactive); in the assay with IGROV-1, 3.78 µM (inactive); in the assay on SR, 0.0194 µM (active); in the assay with HCT-116, 0.064 µM (active); with HOP-62 it was 0.109 µM (active); with MCF7, 0.0244 µM (active). Also, the GI50 with CAKI-1 is > 24.7 µM (inactive); with SW-620, < 0.01 µM (active); in the assay with ACHN, 0.167 µM (active); in the assay on OVCAR-3 it was 0.0365 µM (active); in the assay with NCI-H522 it was 0.12 µM (active); in the assay with U-251, 0.0982 µM (active). Besides, the GI50 is 0.0177 µM (active) with CCRF-CEM; < 0.021 µM (active) in the assay with RPMI-8226; 0.0122 µM (active) with MDA-MB-231; 2.41 µM (inactive) in the assay with HCC 2998; 0.0193 µM (active) with KM12; 0.0841 µM (active) in the assay with NCI-H460. The figures for the GI50 with SNB-19 and with A498 were 0.0352 µM (active) and 25.2 µM (inactive), respectively.
For `Nc1ncnc2nn(C3OC(CO)C(O)C3O)nc12` (stereo not given), the GI50 is 4.21 µM (inactive) in the assay with T47D; 4.12 µM (inactive) with IGROV-1; 2.99 µM (inactive) in the assay with SR; 7.87 µM (inactive) in the assay with HCT-116; 14 µM (inactive) in the assay on HOP-62; 8.28 µM (inactive) in the assay with MCF7. For the same compound, the GI50 was 8.55 µM (inactive) in the assay with CAKI-1; 6.52 µM (inactive) in the assay on SW-620; 3.67 µM (inactive) with ACHN; 7.57 µM (inactive) in the assay on OVCAR-3; 6.82 µM (inactive) in the assay with NCI-H522; 23.1 µM (inactive) with U-251. The GI50 with CCRF-CEM is 21.1 µM (inactive); in the assay on RPMI-8226, 3.64 µM (inactive); with MDA-MB-231, 3.75 µM (inactive); in the assay on HCC 2998, 7.6 µM (inactive); with KM12, 10.1 µM (inactive); with NCI-H460, 4.09 µM (inactive). Also, the GI50 in the assay on SNB-19 was 29.6 µM (inactive); with A498, 10.2 µM (inactive).
For `CNC(=O)CNC(=O)N(C[C@@H]1CCCN1C(=O)[C@H](CC(C)C)NC(=O)OC(C)(C)C)C(C)C`, the GI50 in the assay with T47D, in the assay with IGROV-1, with SR, in the assay with HCT-116, in the assay on HOP-62 and in the assay with MCF7 was > 100 µM (inactive) throughout. Also, the GI50 in the assay with CAKI-1, in the assay on SW-620, in the assay on ACHN, with OVCAR-3, in the assay on NCI-H522 and in the assay with U-251 was > 100 µM (inactive) each time. The GI50 in the assay with CCRF-CEM, in the assay with RPMI-8226, in the assay on MDA-MB-231, in the assay with HCC 2998, with KM12 and with NCI-H460 was > 100 µM (inactive) each time. The GI50 in the assay on SNB-19 and in the assay with A498 was > 100 µM (inactive) each time.
Consider `CCOC(=O)c1oc2cc3c(c4c2c1-c1ccccc1N4C)C=CC(C)(C)O3`, for which the GI50 in the assay with T47D was 16.9 µM (inactive); with IGROV-1 it was 15.8 µM (inactive); in the assay with SR it was 0.56 µM (active); in the assay with HCT-116, 14.2 µM (inactive); in the assay on HOP-62 it was 6.84 µM (inactive); in the assay with MCF7 it was 2.37 µM (inactive). Besides, the GI50 with CAKI-1 is 15.9 µM (inactive); with SW-620, 59.8 µM (inactive); with ACHN it was 8.89 µM (inactive); with OVCAR-3 it was 9.59 µM (inactive); in the assay with NCI-H522, 8.71 µM (inactive); with U-251, 7.5 µM (inactive). For the same compound, the GI50 with CCRF-CEM was 12.4 µM (inactive); with RPMI-8226, 12.8 µM (inactive); in the assay on MDA-MB-231 it was 10.4 µM (inactive); with HCC 2998, 65.3 µM (inactive); with KM12, 16.3 µM (inactive); in the assay on NCI-H460, 20.5 µM (inactive). In addition, the GI50 with SNB-19 was 14.7 µM (inactive); in the assay with A498 it was 25.9 µM (inactive).
As for `[N-]=[N+]=NC1C(O)C(CO)OC1n1ccc(=O)[nH]c1=O` (stereo not given), the GI50 with T47D, in the assay with IGROV-1, in the assay on SR, in the assay with HCT-116, in the assay with HOP-62 and in the assay on MCF7 was > 875 µM (inactive) in each case. The GI50 with CAKI-1, in the assay with SW-620, in the assay on ACHN, in the assay with OVCAR-3, in the assay with NCI-H522 and in the assay with U-251 was > 875 µM (inactive) throughout. Besides, the GI50 with CCRF-CEM, in the assay with RPMI-8226, in the assay on MDA-MB-231, with HCC 2998, in the assay on KM12 and in the assay on NCI-H460 was > 875 µM (inactive) throughout. The GI50 with SNB-19 and in the assay on A498 was > 875 µM (inactive) in each case.
For the compound `COC1=CC(=O)O/C1=C(\OC)C1OC1c1ccccc1` (stereo not given), the GI50 is 76 µM (inactive) with T47D; > 100 µM (inactive) in the assay on IGROV-1; 13 µM (inactive) in the assay with SR; > 100 µM (inactive) in the assay with HCT-116; > 100 µM (inactive) with HOP-62; > 100 µM (inactive) with MCF7. The GI50 in the assay with CAKI-1, with SW-620, in the assay on ACHN, in the assay on OVCAR-3, with NCI-H522 and in the assay with U-251 was > 100 µM (inactive) each time. For the same compound, the GI50 in the assay with CCRF-CEM is 35.2 µM (inactive); with RPMI-8226 it was > 100 µM (inactive); in the assay on MDA-MB-231, 74.3 µM (inactive); in the assay with HCC 2998 it was > 100 µM (inactive); in the assay on KM12, > 100 µM (inactive); in the assay with NCI-H460, > 100 µM (inactive). For the same compound, the GI50 with SNB-19 and with A498 was > 100 µM (inactive) in each case.
In the case of `O=c1[nH]nc(Cc2ccc(Cl)cc2)n1/N=C/c1cccs1`, the GI50 in the assay with T47D was > 100 µM (inactive); in the assay with IGROV-1, 23.1 µM (inactive); with SR it was > 100 µM (inactive); with HCT-116, 30.8 µM (inactive); in the assay on HOP-62, 22.1 µM (inactive); in the assay on MCF7 it was 44.3 µM (inactive). Moreover, the GI50 in the assay on CAKI-1 is 36.5 µM (inactive); in the assay on SW-620 it was > 100 µM (inactive); with ACHN, 75.7 µM (inactive); in the assay on OVCAR-3, > 100 µM (inactive); in the assay with NCI-H522, 23.7 µM (inactive); in the assay on U-251, 28.4 µM (inactive). Further, the GI50 in the assay on CCRF-CEM is > 100 µM (inactive); in the assay on RPMI-8226, > 100 µM (inactive); with MDA-MB-231 it was 21.3 µM (inactive); with HCC 2998, > 100 µM (inactive); with KM12, > 100 µM (inactive); in the assay with NCI-H460, > 100 µM (inactive). Besides, the GI50 with SNB-19 is 20.4 µM (inactive); in the assay on A498, 29.1 µM (inactive).
Take `COc1ccc2nc3cc(Cl)ccc3c(NCCNCCCNC(=O)c3cc(-c4ccccc4)nc4ccccc34)c2c1`: the GI50 in the assay with T47D was > 100 µM (inactive); in the assay on IGROV-1, > 100 µM (inactive); with SR, 38.3 µM (inactive); in the assay with HCT-116 it was > 100 µM (inactive); in the assay on HOP-62 it was > 100 µM (inactive); in the assay on MCF7, > 100 µM (inactive). Further, the GI50 was > 100 µM (inactive) in the assay on CAKI-1; > 100 µM (inactive) in the assay with SW-620; > 100 µM (inactive) in the assay with ACHN; 54.7 µM (inactive) in the assay with OVCAR-3; > 100 µM (inactive) in the assay on NCI-H522; > 100 µM (inactive) in the assay on U-251. For the same compound, the GI50 with CCRF-CEM is > 100 µM (inactive); in the assay on RPMI-8226, > 100 µM (inactive); with MDA-MB-231, > 100 µM (inactive); with HCC 2998, > 100 µM (inactive); in the assay with KM12, 70.8 µM (inactive); with NCI-H460 it was > 100 µM (inactive). Moreover, the GI50 with SNB-19 and with A498 was > 100 µM (inactive) in each case.
For `CN(C)CCCOC(=O)C(c1ccccc1)C1(O)CCSCC1` (stereo not given), the GI50 in the assay on T47D, in the assay on IGROV-1, in the assay on SR, in the assay on HCT-116, in the assay on HOP-62 and in the assay on MCF7 was > 100 µM (inactive) each time. Moreover, the GI50 was 32.7 µM (inactive) in the assay with CAKI-1; 32.3 µM (inactive) in the assay with SW-620; > 100 µM (inactive) in the assay on ACHN; > 100 µM (inactive) in the assay on OVCAR-3; > 100 µM (inactive) in the assay on NCI-H522; > 100 µM (inactive) in the assay with U-251. Also, the GI50 was > 100 µM (inactive) with CCRF-CEM; > 100 µM (inactive) in the assay with RPMI-8226; > 100 µM (inactive) in the assay on MDA-MB-231; > 100 µM (inactive) in the assay on HCC 2998; 68.2 µM (inactive) with KM12; > 100 µM (inactive) with NCI-H460. Further, the GI50 is 26.8 µM (inactive) in the assay with SNB-19 and > 100 µM (inactive) with A498.
On to `COC(=O)[C@@]12C(=O)C=CC(=O)[C@@H]1C1C(=CC2COC(C)=O)O[C@@H]2OC3(CCCCC3)O[C@H]12` (stereo not given in full), for which the GI50 with T47D is 3.66 µM (inactive); in the assay with IGROV-1, 16 µM (inactive); with SR it was 3.05 µM (inactive); in the assay with HCT-116 it was 5.69 µM (inactive); with HOP-62, 19.8 µM (inactive); in the assay on MCF7, 14.1 µM (inactive). In addition, the GI50 is 12.6 µM (inactive) in the assay on CAKI-1; 3.75 µM (inactive) in the assay on SW-620; 9.04 µM (inactive) in the assay with ACHN; 6.37 µM (inactive) in the assay on OVCAR-3; 2.21 µM (inactive) in the assay on NCI-H522; 15.6 µM (inactive) in the assay with U-251. The GI50 is 8.13 µM (inactive) in the assay with CCRF-CEM; 2.99 µM (inactive) in the assay with RPMI-8226; 19.5 µM (inactive) in the assay on MDA-MB-231; 16.1 µM (inactive) with HCC 2998; 13 µM (inactive) in the assay with KM12; 16.9 µM (inactive) in the assay on NCI-H460. Further, the GI50 in the assay with SNB-19 is 16.1 µM (inactive); in the assay with A498, 22.8 µM (inactive).

For the origin of these results see ChEMBL document CHEMBL1201862, “PubChem BioAssay data set” (2004).
